In this experiment the target is T1, 5HTR2B (Homo sapiens, UniProt P41595).
T1 construct: host or cells: human Maverick/293 cells
The experiment in a line: 5HTR2B antagonist activity, calcium mobilization assay in human Maverick/293 cells (serotonin as agonist). The note with it: intracellular calcium, emission 525 nm, read-out: Ca assay IC50. The experiment is classed as cell-based. In a few lines: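 Serum-starved (2 h) human Maverick/293 cells loaded with calcium dye for 50 min at 37 °C, then antagonist preincubated 15-30 min before serotonin challenge. Calcium fluorescence (ex 485/em 525 nm) recorded for 80 s; peak-based % inhibition fitted sigmoidally for IC50.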

This is an account of results in patent US10654837B2, “Sulphamoylaryl derivatives and use thereof as medicaments for the treatment of liver fibrosis” (Janssen Pharmaceutica NV, priority 2017, dated 2020).

T1 sequence (P41595 whole entry): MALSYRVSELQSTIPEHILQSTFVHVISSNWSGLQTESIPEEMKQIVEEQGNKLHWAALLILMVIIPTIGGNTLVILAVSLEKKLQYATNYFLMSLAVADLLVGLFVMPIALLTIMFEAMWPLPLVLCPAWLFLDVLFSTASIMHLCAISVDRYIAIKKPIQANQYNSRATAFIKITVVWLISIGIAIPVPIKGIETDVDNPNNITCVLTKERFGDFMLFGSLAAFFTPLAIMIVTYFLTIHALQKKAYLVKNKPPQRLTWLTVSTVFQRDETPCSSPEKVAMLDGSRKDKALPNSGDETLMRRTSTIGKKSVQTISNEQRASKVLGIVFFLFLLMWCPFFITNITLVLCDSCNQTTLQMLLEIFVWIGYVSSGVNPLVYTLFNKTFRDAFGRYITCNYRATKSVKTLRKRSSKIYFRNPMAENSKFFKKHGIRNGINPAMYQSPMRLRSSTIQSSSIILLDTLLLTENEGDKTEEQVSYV

Regarding `COc1ccc(S(=O)(=O)N[C@H]2CCOC2)cc1C(=O)Nc1ccc(F)c(C(F)F)c1` [Compound 167, (S)—N-(3-(Difluoromethyl)-4-fluorophenyl)-2-methoxy-5-(N-(tetrahydrofuran-3-yl)sulfamoyl)benzamide], the IC50 amounted to 0.32 nM.
Consider `COc1ccc(S(=O)(=O)NC2CCN(C)C2=O)cc1C(=O)Nc1ccccc1Cl` (single isomer, unassigned) [Compound 54b, (R*)—N-(2-Chlorophenyl)-2-methoxy-5-(N-(1-methyl-2-oxopyrrolidin-3-yl)sulfamoyl)benzamide], for which the IC50 amounted to 1.2 nM.
Take `COc1ccc(S(=O)(=O)N[C@H]2C[C@@H](O)C2)cc1C(=O)Nc1cc(C)ccc1Cl` [Compound 137b, N-(2-Chloro-5-methylphenyl)-5-(N-((cis)-3-hydroxycyclobutyl)sulfamoyl)-2-methoxybenzamide]: the IC50 worked out at 39 nM.
As to `COc1ccc(S(=O)(=O)N[C@H]2CCOC2)cc1C(=O)Nc1c(Cl)cccc1Cl` [Compound 81, (S)—N-(2,6-Dichlorophenyl)-2-methoxy-5-(N-(tetrahydrofuran-3-yl)sulfamoyl) benzamide], the IC50 is 32 nM.
As to `COc1ccc(S(=O)(=O)N[C@H]2C[C@H](O)C2)cc1C(=O)Nc1ccc(F)c(C)c1` [Compound 6a, N-(4-Fluoro-3-methylphenyl)-5-(N-((trans)-3-hydroxycyclobutyl)sulfamoyl)-2-methoxybenzamide], the IC50 amounted to 18 nM.
To `COCCOC[C@H](C)NS(=O)(=O)c1ccc(OC)c(C(=O)Nc2ccc(F)cc2F)c1` [Compound 147a, (S)—N-(2,4-Difluorophenyl)-2-methoxy-5-(N-(1-(2-methoxyethoxy)propan-2-yl)sulfamoyl)benzamide] belongs 3.4 nM; to `COc1ccc(S(=O)(=O)N[C@H]2C[C@H](C)C2)cc1C(=O)Nc1ccc(F)c(C)c1` [Compound 7b, N-(4-Fluoro-3-methylphenyl)-2-methoxy-5-(N-((trans)-3-methylcyclobutyl)sulfamoyl)benzamide], 6.9 nM; to `COc1ccc(S(=O)(=O)NC2CC[C@@H](O)C2)cc1C(=O)Nc1ccccc1Cl` (stereo partly drawn) [Compound 57b, N-(2-Chlorophenyl)-5-(N-((cis)-3-hydroxycyclopentyl)sulfamoyl)-2-methoxy benzamide], 0.2 nM.
With `CCNS(=O)(=O)c1ccc(OC)c(C(=O)Nc2ccc(F)c(C)n2)c1` [Compound 26, 5-(N-Ethylsulfamoyl)-N-(5-fluoro-6-methylpyridin-2-yl)-2-methoxybenzamide] the figure was 1.3 nM.
For the compound `COc1ccc(S(=O)(=O)NC2COC2)cc1C(=O)Nc1ccc(F)c(C(F)F)c1` [Compound 39, N-(3-(Difluoromethyl)-4-fluorophenyl)-2-methoxy-5-(N-(oxetan-3-yl)sulfamoyl)benzamide], the IC50 turned out to be 3.6 nM.
With `COc1ccc(S(=O)(=O)N[C@@H](C)CC#N)cc1C(=O)Nc1ccccc1Cl` (single isomer, unassigned) [Compound 60a, (S*)—N-(2-Chlorophenyl)-5-(N-(1-cyanopropan-2-yl)sulfamoyl)-2-methoxy benzamide] the figure was 0.4 nM.
Consider `COc1ccc(S(=O)(=O)N[C@@H]2CCNC2)cc1C(=O)Nc1ccc(F)c(C)n1` [Compound 177, (R)—N-(5-Fluoro-6-methylpyridin-2-yl)-2-methoxy-5-(N-(pyrrolidin-3-yl)sulfamoyl)benzamide], for which the IC50 stood at 4.2 nM.
Turning to `COc1ccc(S(=O)(=O)N[C@H]2CCOC2)cc1C(=O)Nc1ccc(Cl)c(Cl)c1` [Compound 72, (S)—N-(3,4-Dichlorophenyl)-2-methoxy-5-(N-(tetrahydrofuran-3-yl)sulfamoyl) benzamide], the IC50 was determined as 5.1 nM.
In the case of `[2H]C([2H])([2H])Oc1ccc(S(=O)(=O)N[C@H]2CCOC2)cc1C(=O)Nc1ncc(F)cc1F` [Compound 196, (S)—N-(3,5-difluoropyridin-2-yl)-2-(methoxy-d3)-5-(N-(tetrahydrofuran-3-yl)sulfamoyl)benzamide], the IC50 was 19 nM.
As for `COc1ccc(S(=O)(=O)N[C@H]2CCOC2)cc1C(=O)Nc1cc(F)cc(F)c1Cl` [Compound 96, (S)—N-(2-Chloro-3,5-difluorophenyl)-2-methoxy-5-(N-(tetrahydrofuran-3-yl)sulfamoyl)benzamide], the IC50 was found to be 84 nM.
For `COc1ccc(S(=O)(=O)NC2(C)COC2)cc1C(=O)Nc1ccccc1Cl` [Compound 58, N-(2-Chlorophenyl)-2-methoxy-5-(N-(3-methyloxetan-3-yl)sulfamoyl) benzamide], the IC50 is 0.2 nM.
To `COc1ccc(S(=O)(=O)N[C@H]2CCOC2)cc1C(=O)Nc1ccc(F)cn1` [Compound 116, (S)—N-(5-Fluoropyridin-2-yl)-2-methoxy-5-(N-(tetrahydrofuran-3-yl)sulfamoyl) benzamide] belongs 5.4 nM; to `COc1ccc(S(=O)(=O)N[C@H]2CCOC2)cc1C(=O)Nc1ccc(F)cc1` [Compound 158, (S)—N-(4-Fluorophenyl)-2-methoxy-5-(N-(tetrahydrofuran-3-yl)sulfamoyl) benzamide], 0.17 nM; to `COc1cc(F)ccc1NC(=O)c1cc(S(=O)(=O)N[C@H]2CCOC2)ccc1OC` [Compound 135, (S)—N-(4-fluoro-2-methoxyphenyl)-2-methoxy-5-(N-(tetrahydrofuran-3-yl)sulfamoyl)benzamide], 0.1 nM.
Regarding `COc1ccc(S(=O)(=O)N[C@H]2C[C@@H](O)C2)cc1C(=O)Nc1ccc(F)cc1Cl` [Compound 144b, N-(2-chloro-4-fluorophenyl)-5-(N-((cis)-3-hydroxycyclobutyl)sulfamoyl)-2-methoxybenzamide], the IC50 worked out at 0.3 nM.
With `COc1ccc(S(=O)(=O)N[C@H]2CCOC2)cc1C(=O)Nc1cc(Cl)c(F)cc1F` [Compound 75, (S)—N-(5-Chloro-2,4-difluorophenyl)-2-methoxy-5-(N-(tetrahydrofuran-3-yl)sulfamoyl)benzamide] the figure was 9.1 nM.
Regarding `COc1ccc(S(=O)(=O)N[C@H]2C[C@H](O)C2)cc1C(=O)Nc1ccc(Cl)cc1F` [Compound 143a, N-(4-chloro-2-fluorophenyl)-5-(N-((trans)-3-hydroxycyclobutyl)sulfamoyl)-2-methoxybenzamide], the IC50 came to 0.7 nM.
On to `COc1ccc(S(=O)(=O)N[C@H](C)CO)cc1C(=O)Nc1ccc(F)cc1` [Compound 49b, (R)—N-(4-Fluorophenyl)-5-(N-(1-hydroxypropan-2-yl)sulfamoyl)-2-methoxybenzamide], for which the IC50 stood at 9 nM.
With `COc1ccc(S(=O)(=O)N[C@H]2CCOC2)cc1C(=O)Nc1ccccc1Br` [Compound 123, (S)—N-(2-Bromophenyl)-2-methoxy-5-(N-(tetrahydrofuran-3-yl)sulfamoyl) benzamide], the IC50 was determined as 0.2 nM.
In the case of `COc1ccc(S(=O)(=O)N[C@H]2CCOC2)cc1C(=O)Nc1nc(C)cs1` [Compound 82, (S)-2-methoxy-N-(4-methylthiazol-2-yl)-5-(N-(tetrahydrofuran-3-yl)sulfamoyl) benzamide], the IC50 was found to be 1.1 nM.
Consider `COc1ccc(S(=O)(=O)N[C@H]2CCNC2)cc1C(=O)Nc1ccc(F)c(C(F)F)c1` [Compound 183, (S)—N-(3-(difluoromethyl)-4-fluorophenyl)-2-methoxy-5-(N-(pyrrolidin-3-yl)sulfamoyl)benzamide], for which the IC50 came to 0.5 nM.
On to `COc1cc(F)c(S(=O)(=O)N[C@H]2CCOC2)cc1C(=O)Nc1ccc(F)c(C)c1` [Compound 201, (S)-4-fluoro-N-(4-fluoro-3-methylphenyl)-2-methoxy-5-(N-(tetrahydrofuran-3-yl)sulfamoyl)benzamide], for which the IC50 is 8.6 nM.
On to `COc1ccc(S(=O)(=O)N[C@H](C)CO)cc1C(=O)Nc1ccccc1Cl` [Compound 55b, (R)—N-(2-Chlorophenyl)-5-(N-(1-hydroxypropan-2-yl)sulfamoyl)-2-methoxy benzamide], for which the IC50 stood at 0.1 nM.
To `COc1ccc(S(=O)(=O)N[C@H]2CCOC2)cc1C(=O)Nc1ccc(C#N)cc1` [Compound 104, (S)—N-(4-Cyanophenyl)-2-methoxy-5-(N-(tetrahydrofuran-3-yl)sulfamoyl) benzamide] belongs 201 nM.
With `COc1ccc(S(=O)(=O)NC2COC2)cc1C(=O)Nc1ccc(F)cc1` [Compound 43, N-(4-Fluorophenyl)-2-methoxy-5-(N-(oxetan-3-yl)sulfamoyl)benzamide] the figure was 7.2 nM.
Consider `COc1ccc(S(=O)(=O)N[C@H]2C[C@H](O)C2)cc1C(=O)Nc1cccc(C)c1Cl` [Compound 140a, N-(2-Chloro-3-methylphenyl)-5-(N-((trans)-3-hydroxycyclobutyl)sulfamoyl)-2-methoxybenzamide], for which the IC50 turned out to be 3.9 nM.
